The values that follow come from US6911221B2, “Anti-neoplastic drug” (priority 2001, dated 2005).

The test system of one test is MADB106 tumor cells. Nature of the test: Pulmonary metastasis count after tail vein injection of MADB106 tumor cells, with or without β-receptor agonist MP. Type of test: in vivo, Fischer rats. To be noted: for effect of β-receptor agonist on number of MADB106 metastases (in words): MP injected at tumor cell inoculation. On the procedure:
3. The experimental animals were divided into a test group and a control group. The animals in the test group were fed with 0.1, 0.5, 2 g/kg body weight ACNO mixed and standard powdered rodent food to which water was added (test food), every day. The animals in the control group received the same wet food mixture without ACNO (control food) in the same amount. All animals were fed at regular times every day. To adjust animals to the feeding protocol, all rats received the wet mixture without ACNO for 3 days before each experiment. Thereafter, the animals were fed test food and control food, respectively. Rats from all groups consumed more than 95% of the food each day. Approximately 70% of it was consumed during the dark phase. Body weight of each animal was monitored twice a week during the experiment. 4. MADB106 tumor cell—MADB106 cell was obtained from a pulmonary metastasis of a mammary adenocarcinoma (MADB100) by a special incubation. 5. Induction and counting of tumor metastasis—Rats were lightly anesthetized with halothane, and then 10^5 MADB106 tumor cells were injected into their tail vein. […] Rats were anesthetized with halothane after they were fed with ACNO for 3 weeks counted from the day of tumor inoculation, and their lungs were removed and placed in Bouin solution (72% saturated picric acid solution, 23% formaldehyde [37% solution] and 5% glacial acetic acid) for 24 h. Thereafter, the lungs were washed with ethanol, and then the cell number of pulmonary metastasis were counted by two experimenters unaware of the group origin (in a blind technique), independently. The obtained data were analyzed statistically. […] healthy […] Fischer rats that were 7-8 weeks old and of 120-170 g body weight (48 females and 61 males), were randomly divided into 2 groups, an experiment group and a control group. […] Thereafter, the lungs were washed with ethanol, and then the cell number of pulmonary metastasis were counted by two experimenters unaware of the group origin (in a blind technique), independently. The obtained data were analyzed statistically.

In the next test the test system is LEWIS lung cancer. Conditions: subcutaneous transplantation; cited from earlier work.
The next test has as its system B16 melanoma. To be noted: subcutaneous transplantation; cited from earlier work.
Another test concerns S180 sarcoma. To be noted: subcutaneous transplantation; cited from earlier work.
The subject of a further test is NK and IL-2 activity. Conditions: oral; lung cancer implanted mice and normal mice; cited from earlier work.

The structures appear in SMILES notation.

On to `CC(C)NCC(O)c1cc(O)cc(O)c1` (centres unmarked) [MP, Metaproterenol], for which the “effect of β-receptor agonist on number of MADB106 metastases (in words)” value is “significantly increased the cells number of metastases” in the test with MADB106 tumor cells and “significantly increased the number of metastases” in the test with MADB106 tumor cells (listed as Metaproterenol). Moreover, the “cell number of MADB106 metastases” value in the test with MADB106 tumor cells (control food plus MP injection, NS controls 70+14) is recorded as 255+32.

For the compound `CC(C)=CCC[C@](C)(O)[C@H]1CC[C@]2(C)[C@@H]1[C@H](O)C[C@@H]1[C@@]3(C)CC[C@H](O[C@@H]4O[C@H](CO)[C@@H](O)[C@H](O)[C@H]4O[C@@H]4O[C@H](CO)[C@@H](O)[C@H](O)[C@H]4O)C(C)(C)[C@@H]3CC[C@]12C` [Rg3, ginsenoside Rg3], the inhibition rate in the test on LEWIS lung cancer, in the test on B16 melanoma and with S180 sarcoma was 50-60% throughout. In addition, the IL-2 activity entry in the test on NK and IL-2 activity is reported as “remarkably enhance”. The NK activity entry with NK and IL-2 activity is on record as “remarkably enhance”.
